The term IC50 denotes the concentration that inhibits the measured activity by half.

The record followed here is US20250171431A1, “HETEROCYCLIC INHIBITORS OF IGF-1R FOR TREATMENT OF DISEASE” (HORIZON THERAPEUTICS IRELAND DAC, priority 2023, published 2025).

In this assay the target is IGF-1R (Homo sapiens (Human), UniProt P08069). Kind of assay: Example B-1: IGF-1R Assay (PC3 cells, IGF1 stimulation, AlphaLISA). The assay is classed as cell-based. Particulars: 200 ng/mL IGF1 stimulation, read-out: Biological Activity against IGF-1R IC50. As for the experimental part: 50K PC3 cells were seeded on day 1 in 50 μL of media in 96-well plate and incubated overnight at 37° C., 5% CO2. On day 2, all cells were expected to be at 80-90% confluency. Cells were starved for two hours by changing the media to 90 μL of EMEM serum-free media and incubated for 2 hours. Next, cells were treated with 10 μL of 10× concentrated and 3× serially diluted compounds for two hours. It makes 1× of compounds in 100 μL media. This was followed by stimulation of cells with 11×IGF1 for 30 min in 10 μL of serum-free EMEM media at the final concentration of 200 ng/mL.
Chain of IGF-1R (P08069 31-1367): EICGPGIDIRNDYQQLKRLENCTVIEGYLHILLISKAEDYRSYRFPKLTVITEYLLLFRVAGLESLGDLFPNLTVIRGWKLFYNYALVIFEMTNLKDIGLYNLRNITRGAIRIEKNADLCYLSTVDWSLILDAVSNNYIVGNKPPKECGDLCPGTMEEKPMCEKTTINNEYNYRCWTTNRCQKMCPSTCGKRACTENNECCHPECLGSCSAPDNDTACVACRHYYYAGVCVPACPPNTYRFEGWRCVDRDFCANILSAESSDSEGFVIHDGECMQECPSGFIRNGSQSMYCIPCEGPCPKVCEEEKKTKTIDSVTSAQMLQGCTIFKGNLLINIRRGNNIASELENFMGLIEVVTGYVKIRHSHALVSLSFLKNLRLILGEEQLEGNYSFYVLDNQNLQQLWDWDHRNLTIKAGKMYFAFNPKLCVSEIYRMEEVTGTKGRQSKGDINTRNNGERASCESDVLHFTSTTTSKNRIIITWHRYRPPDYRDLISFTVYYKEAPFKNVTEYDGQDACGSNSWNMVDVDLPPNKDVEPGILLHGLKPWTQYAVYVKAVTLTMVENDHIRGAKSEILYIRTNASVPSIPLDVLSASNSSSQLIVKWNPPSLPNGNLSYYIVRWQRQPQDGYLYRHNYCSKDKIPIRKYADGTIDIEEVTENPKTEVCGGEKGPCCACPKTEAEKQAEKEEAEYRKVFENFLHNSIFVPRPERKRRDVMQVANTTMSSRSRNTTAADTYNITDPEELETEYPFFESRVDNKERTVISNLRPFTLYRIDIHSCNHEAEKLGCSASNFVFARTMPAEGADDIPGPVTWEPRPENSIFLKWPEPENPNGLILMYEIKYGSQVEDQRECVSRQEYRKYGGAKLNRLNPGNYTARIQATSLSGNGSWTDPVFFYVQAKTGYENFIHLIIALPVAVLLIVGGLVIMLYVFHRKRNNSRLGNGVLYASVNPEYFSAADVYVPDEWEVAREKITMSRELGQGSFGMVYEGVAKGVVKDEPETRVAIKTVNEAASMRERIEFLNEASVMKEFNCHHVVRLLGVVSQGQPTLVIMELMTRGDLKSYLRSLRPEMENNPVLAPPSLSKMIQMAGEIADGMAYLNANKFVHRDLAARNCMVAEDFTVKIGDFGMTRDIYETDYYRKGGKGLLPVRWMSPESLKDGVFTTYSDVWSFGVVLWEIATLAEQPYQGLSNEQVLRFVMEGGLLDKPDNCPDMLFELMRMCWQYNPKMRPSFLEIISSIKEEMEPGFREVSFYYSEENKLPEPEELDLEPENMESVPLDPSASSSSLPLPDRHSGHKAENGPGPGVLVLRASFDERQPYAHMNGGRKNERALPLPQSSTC
The media was removed and replaced by 50 μL of 1× lysis buffer from the AlphaLISA kit (with 1× of cOmplete™ protease inhibitor). The plates were sealed, and cells were allowed to lyse for 10 min in the shaker before storing the plate at −20° C. until used. The AlphaLISA assay with processed cell lysates were performed as described in the protocol. Briefly, 10 μL of the undiluted sample were loaded to 384 well Optiplates and 5 μL of the acceptor mix (as described in the AlphaLISA kit) was added to each well. The plates were sealed and briefly vortexed followed by the incubation at RT for 3 hours. In the dark, 5 μL of donor mix was added to each well. All plates were sealed and stored at RT overnight. The plates were read in EnVision reader using standard AlphaLISA settings.
Compound activity was analyzed using CBIS data analysis suite (ChemInnovation, CA). Percentage inhibition was calculated using the following formula: % Inhibition=100%×(1−(mean RLU of test sample−mean RLU of vehicle control)/(mean RLU of EC80 control−mean RLU of vehicle control)). The activity for representative examples of the invention is shown in the following table, wherein A: IC50≤500 nM; B: 500 nM<IC50≤2 μM; C: 2 μM<IC50≤10 μM; D: IC50>10 μM.
Background: Alpha assays give light when donor and acceptor beads are brought close together.
Turning to `COc1cc(Nc2nccc(Nc3ccc4cccnc4c3)n2)ccc1OCCCN1CCCCC1` [Compound 433, 2-[3-methoxy-4-(3-piperidinopropoxy)phenylamino]-4-(7-quinolylamino) pyrimidine], the half-maximal inhibitory concentration (IC50) lay in the range of 500 to 2000 nM.
Consider `COCCN(C)[C@H]1C[C@@H](Oc2ccc(Nc3nccc(Nc4cnc5cc(F)c(F)cc5c4)n3)cc2OC)C1` [Compound 47, 4-(6,7-difluoro-3-quinolylamino)-2-(3-methoxy-4-{(1s,3s)-3-[(2-methoxyethyl)-N-methylamino]cyclobutoxy}phenylamino)pyrimidine], for which the IC50 is no more than 500 nM.
With `O=c1[nH]c2ccccc2cc1Nc1ccnc(Nc2ccc(OCCCN3CCOCC3)cc2)n1` [Compound 251, 3-{2-[p-(3-morpholinopropoxy)phenylamino]-4-pyrimidinylamino}-2(1H)-quinolinone], the IC50 was no more than 500 nM.
Regarding `COc1cc(Nc2nccc(Nc3cnc4cc(F)c(F)cc4c3)n2)cnc1N1CCNC(=O)C1` [Compound 471, 4-{5-[4-(6,7-difluoro-3-quinolylamino)-2-pyrimidinylamino]-3-methoxy-2-pyridyl}-2-piperazinone], the IC50 is greater than 10000 nM.
As for `COc1cc(Nc2nccc(Nc3cnc4c(c3)CCCC4)n2)ccc1O[C@H]1C[C@@H](N(C)C)C1` [Compound 364, 2-{3-methoxy-4-[(1s,3s)-3-(dimethylamino)cyclobutoxy]phenylamino}-4-(5,6,7,8-tetrahydro-3-quinolylamino)pyrimidine], the figure is no more than 500 nM.
Consider `O=S1(=O)CCc2ncc(Nc3ccnc(Nc4ccc(OCCCN5CCOCC5)cc4)n3)cc2C1` [Compound 390, 3-{2-[p-(3-morpholinopropoxy)phenylamino]-4-pyrimidinylamino}-5,6,7,8-tetrahydro-6H,6H-6λ^6-thia-1-azanaphthalene-6,6-dione], for which the IC50 lay within 500 to 2000 nM.
On to `COc1cc(Nc2nccc(Nc3cnc4cc(C)ccc4c3)n2)ccc1O[C@H]1C[C@H](N(C)C)C1` [Compound 336, 2-{3-methoxy-4-[(1r,3r)-3-(dimethylamino)cyclobutoxy]phenylamino}-4-(7-methyl-3-quinolylamino)pyrimidine], for which the IC50 was no more than 500 nM.
As for `COc1cc(Nc2nccc(Nc3cnc4cc(F)c(F)cc4c3)n2)cnc1O[C@H]1C[C@@H](N(C)C)C1` [Compound 289, 4-(6,7-difluoro-3-quinolylamino)-2-{5-methoxy-6-[(1s,3s)-3-(dimethylamino)cyclobutoxy]-3-pyridylamino}pyrimidine], the figure is 500 to 2000 nM.
In the case of `c1ccc2ncc(Nc3ccnc(Nc4ccc(O[C@H]5C[C@H](N6CCOCC6)C5)cc4)n3)cc2c1` [Compound 26, 4-(3-quinolylamino)-2-{p-[(1r,3r)-3-morpholinocyclobutoxy]phenylamino}pyrimidine], the IC50 was no more than 500 nM.
As for `O=S1(=O)CCN(CCCOc2ccc(Nc3nccc(Nc4cnc5cc(Cl)ccc5c4)n3)cc2)CC1` [Compound 399, 4-(3-{p-[4-(7-chloro-3-quinolylamino)-2-pyrimidinylamino]phenoxy}propyl)-1λ^6,4-thiazinane-1,1-dione], the figure is 2000 to 10000 nM; as for `COc1cc(Nc2nccc(Nc3cnc4c(c3)CCCCC4)n2)ccc1O[C@H]1C[C@@H](N(C)C)C1` [Compound 202, 4-{8-azabicyclo[5.4.0]undeca-1(7),8,10-trien-10-ylamino}-2-{3-methoxy-4-[(1s,3s)-3-(dimethylamino)cyclobutoxy]phenylamino}pyrimidine], no more than 500 nM; as for `COc1ccc2cc(Nc3ccnc(Nc4ccc(N5CCN(C)CC5)cc4OC)n3)cnc2c1` [Compound 463, 2-[2-methoxy-4-(4-methyl-1-piperazinyl)phenylamino]-4-(7-methoxy-3-quinolylamino)pyrimidine], no more than 500 nM.
`COc1cc(Nc2nccc(Nc3cc(F)c4ncccc4c3)n2)ccc1OCCCN1CCCCC1` [Compound 447, 4-(8-fluoro-6-quinolylamino)-2-[3-methoxy-4-(3-piperidinopropoxy)phenylamino] pyrimidine]: the IC50 was no more than 500 nM.
